Laboratory results published in patent US20200384014A1, “Pulsed Administration Of Inhaled Nitric Oxide For The Treatment Of Pulmonary Hypertension” (Bellerophon Pulse Technologies LLC, priority 2017, published 2020).

Test system: systolic pulmonary arterial pressure (sPAP) in subjects with PH-COPD
Experiment: Phase 2 placebo-controlled clinical study of pulsed iNO in subjects with PH-COPD on LTOT (IK-7002-COPD-201; NCT01728220)
Format: in vivo, human
Design: Average Change in sPAP vs Baseline: unit not given beside the values
Conditions: for Average Change in sPAP vs Baseline: PH-COPD subjects on LTOT, echocardiography
Excerpt: This study was a Phase 2, placebo-controlled, double-blind, randomized, two-part, dose-confirming clinical study characterizing the pharmacodynamic effects of pulsed iNO versus placebo in subjects with PH-COPD on LTOT (IK-7002-COPD-201; NCT01728220). The primary outcome of this study was change in systolic pulmonary arterial pressure (sPAP) from baseline after treatment with iNO (measured by 2D transthoracic echocardiography with Doppler). The secondary outcome was the occurrence of a decrease ≥5 mm Hg of partial pressure of oxygen in arterial blood (PaO2) from baseline after treatment with iNO.
Subjects also had tricuspid regurgitation velocity (TRV)≥2.9 m/s as measured by echocardiogram, a post-bronchodilatory forced expiratory volume in 1 second/forced vital capacity (FEV1/FVC)<0.7 and a FEV1<60% predicted. All subjects were at least 40 years old and were former smokers with at least 10 pack-years of tobacco cigarette smoking before study entry. All subjects also had been receiving LTOT for at least 3 months for at least 10 hours per day.
PH-COPD subjects were administered pulsed iNO at a dose of 3, 10, 15, 30 or 75 mcg/IBW kg/hr for at least 20 minutes, or received pulsed placebo (99.999% N2) for at least 20 minutes. The doses of 3 and 10 mcg/kg IBW/hr were administered from a mini-cylinder having 2,440 ppm NO and the doses of 15, 30 and 75 mcg/kg IBW/hr were administered from a mini-cylinder having 4,880 ppm NO.
The NO delivery device delivered gas comprising NO in a pulsatile manner at the beginning of the patient's breath. The minimum pulse volume is limited and for lower doses, can require 1 or more breaths to be skipped to maintain a constant dose in mcg/kg IBW/hr.

[N]=O [iNO, nitric oxide]
Average Change in sPAP vs Baseline (pulsed iNO 10 mcg/kg IBW/hr for at least 20 minutes, N=21): −4.4 | Average Change in sPAP vs Baseline (pulsed iNO 15 mcg/kg IBW/hr for at least 20 minutes, N=21): −2.4 | Average Change in sPAP vs Baseline (pulsed iNO 30 mcg/kg IBW/hr for at least 20 minutes, N=24): −4.5 | Average Change in sPAP vs Baseline (pulsed iNO 75 mcg/kg IBW/hr for at least 20 minutes, N=24): −4.3 | Efficacy (decrease in sPAP), in words (pulsed iNO 3 mcg/kg IBW/hr): ineffective | Efficacy (decrease in sPAP), in words (pulsed iNO 10 mcg/kg IBW/hr): showed efficacy | Efficacy (decrease in sPAP), in words (pulsed iNO 15 mcg/kg IBW/hr): did not show efficacy | Efficacy (decrease in sPAP), in words (pulsed iNO 30 mcg/kg IBW/hr): showed efficacy | Efficacy (decrease in sPAP), in words (pulsed iNO 75 mcg/kg IBW/hr): showed efficacy
